Measurements taken from patent US9763994B2, “Composition for promoting wound healing” (INDUSTRY-ACADEMIC COOPERATION FOUNDATION, YONSEI UNIVERSITY, priority 2014, dated 2017).

Tests used:
[1] = system: acute wound in a mouse model; assay: Mouse acute wound healing model (wound closure, H&E, immunohistochemical staining); assay type: in vivo, C3H mouse; conditions: for re-epithelialization of the acute wound (H&E staining): C3H mouse wound
Experimental: (A) In order to confirm the wound healing promoting effect of the peptide synthesized in Example 1, hair was removed the back of a 7-week-old C3H mouse and a 1.5 cm×1.5 cm sized wound was made. For a control group, 10 μL of a vehicle (50% ethanol, 20% propylene glycol, 30% water) was applied once a day for a period of 12 days. For test groups, 10 μL of the peptide or valproic acid (VPA) dissolved in the vehicle at concentrations of 100 μM and 500 mM, respectively, was applied. The skin tissue of the experimental mouse was fixed in 4% paraformaldehyde, embedded in paraffin and sliced with a thickness of 4 μm. The sliced tissue was deparaffinized, rehydrated and then stained with hematoxylin (violet) and eosin (pink) for observation of histological structure. For immunohistochemical staining, the skin tissue slice was deparaffinized, rehydrated and then incubated with 10 mM sodium citrate buffer at 121° C. for 15 minutes to recover antigenicity. The slice was blocked with albumin to prevent nonspecific antigen-antibody reactions and then antigen-antibody reactions were induced by treating with β-catenin (1:100), keratin 14 (1:1000) and collagen I (1:500) antibodies used as wound healing markers. Subsequently, after inducing antigen-antibody reactions by treating the slice with fluorescence-labeled secondary antibodies that can recognize the antibodies as antigens, the result was observed using a fluorescence microscope.
(B) In order to compare the wound healing promoting effect of the synthesized peptide with that of the existing drug, 10 μL of a vehicle (50% ethanol, 20% propylene glycol, 30% water), 100 μM PTD-DBM or 1.5 μM fibronectin was applied on a 1.5 cm×1.5 cm sized wound of a 7-week-old C3H mouse once a day for a period of 12 days.

[2] = system: β-catenin, keratin 14, α-SMA, collagen I; assay: Western blotting of mouse wound tissue; assay type: in vivo, C3H mouse; conditions: wound tissue of Test Example 2; versus control; FIG. 3
Experimental: The wound tissue used in Test Example 2 was lysed with RIPA buffer and proteins were isolated on 10% SDS polyacrylamide gel and then transferred onto a membrane. The membrane was blocked using 5% nonfat dry skim milk and then incubated with β-catenin (1:1000), α-SMA (1:1000), keratin 14 (1:1000) and collagen I (1:2000) antibodies. After inducing antigen-antibody reactions by adding enzyme-conjugated secondary antibodies that can recognize the antibodies as antigens, the result was observed using a LAS image analyzer.

[3] = system: collagen; assay: Collagen staining of mouse acute wound tissue (Masson's trichrome, picrosirius red, van Gieson); assay type: in vivo, C3H mouse; conditions: wound tissue of Test Example 2; FIG. 4A
Experimental: (A) The mouse tissue used in Test Example 2 was fixed in 4% paraformaldehyde, embedded in paraffin and sliced with a thickness of 4 μm. The sliced tissue was deparaffinized, rehydrated and then subjected to van Gieson staining, Masson's trichrome staining and picrosirius red staining in order to evaluate the degree of collagen synthesis. Van Gieson staining was conducted by immersing the slide in Weigert's solution for 10 minutes and then in picro fuchsin solution for 2 minutes. Masson's trichrome staining was conducted by immersing the slide in Weigert's iron hematoxylin solution for 10 minutes and then in Biebrich scarlet/acid fuchsin and aniline blue for 5 minutes, respectively. Picrosirius red staining was conducted by immersing the slide in Weigert's solution for 8 minutes and then in picrosirius red for 1 hour.

[4] = system: collagen; assay: Hydroxproline assay of mouse acute wound tissue; assay type: in vivo, C3H mouse; conditions: wound tissue of Test Example 2; absorbance at 550 nm; FIG. 4B
Experimental: (B) The tissue used in Test Example 2 was dried in an incubator at 60° C. and then hydrolyzed at 110° C. with 6 N HCl. After adding chloramine T and Ehrlich's reagent to the hydrolyzed tissue, absorbance was measured at 550 nm using the FLUOstar OPTIMA luminometer.

[5] = system: keratinocytes; assay: Immunocytochemical staining of keratinocytes (peptide infiltration, β-catenin); assay type: cell-based; conditions: FIG. 1
Experimental: (§1) For immunocytochemical staining, keratinocytes or fibroblasts were cultured on a 24-well plate and fixed in 4% paraformaldehyde for 15 minutes. After treating with 0.1% Triton X-100 for 15 minutes so that antibodies can permeate well and blocking with albumin so as to prevent nonspecific antigen-antibody reactions, antigen-antibody reactions were induced by treating with β-catenin antibodies. Then, after inducing antigen-antibody reactions by treating with fluorescence-labeled secondary antibodies that can recognize the antibodies as antigens, the result was observed under a fluorescence microscope.

[6] = system: fibroblasts; assay: Immunocytochemical staining of fibroblasts (peptide infiltration, β-catenin); assay type: cell-based; conditions: FIG. 1
Experimental: as §1

[7] = 10 μL topical once a day for 12 days, peptide 100 μM, VPA 500 mM

| Molecule | re-epithelialization of the acute wound (H&E staining) [1, 7] | wound healing markers β-catenin, keratin 14, α-SMA or collagen I (western blotting) [2] | collagen in acute wound tissue (Masson's trichrome, picrosirius red and van Gieson staining) [3] | collagen in acute wound tissue (hydroxproline assay) [4] | β-catenin [5] | β-catenin [6] | wound healing effect compared with fibronectin ([1]; 100 μM PTD-DBM vs 1.5 μM fibronectin, 10 μL once a day for 12 days, C3H mouse, FIG. 2B) | healing of acute wound ([1]; 1.5 cm×1.5 cm wound, 7-week-old C3H mouse, 10 μL topical once a day for 12 days, peptide 100 μM, VPA 500 mM, FIGS. 2A and 2B) |
| --- | --- | --- | --- | --- | --- | --- | --- | --- |
| CCCC(CCC)C(=O)O [VPA, valproic acid, reference compound] | quick re-epithelialization | increased as compared to the control | increased collagen | increased collagen |  |  |  |  |
| RRRRRRRRGGGGRKTGHQICKFRKCK-(FITC) [PTD-DBM] | quick re-epithelialization | increased as compared to the control | increased collagen | increased collagen | increased β-catenin in a concentration-dependent manner | increased β-catenin in a concentration-dependent manner | excellent when compared with that of fibronectin | could quickly heal the acute wound |
